Data set [1] in a line: Stability of apixaban in propylene glycol on heating. Type of data set: physicochemical. The settings on record: temperature increase up to 90° C. The method, then:
(§1) However, for achieving solutions of apixaban with concentration of more than 0.5 mg/mL in a vehicle comprising at least 35% (w/v) propylene glycol based on the total formulation, heating within the range of 25-90° C. is applied so to achieve full and quick solubilization of apixaban.

Data set [2] is described as follows: Solubility of apixaban in propylene glycol based vehicles. It is filed as physicochemical. The method, then:
as §1
Concentrated solutions of apixaban are necessary in order to achieve low dosage volumes. The temperature of the mixture of apixaban and optionally co-solvents can be up to 90° C.

As for `COc1ccc(-n2nc(C(N)=O)c3c2C(=O)N(c2ccc(N4CCCCC4=O)cc2)CC3)cc1` [Apixaban, 1-(4-methoxyphenyl)-7-oxo-6-[4-(2-oxopiperidin-1-yl)phenyl]-4,5,6,7-tetrahydro-1H-pyrazolo[3,4c]pyridine-3-carboxamide], in data set [1], the “Stability of apixaban in propylene glycol” value is reported as “stable”. Further, the “Dissolution of apixaban in the vehicle” value in data set [2] (0.25 mg/mL apixaban, vehicle with at least 35% (w/v) propylene glycol, room temperature) was “dissolves freely”. Moreover, the “Most concentrated apixaban solutions prepared” value in data set [2] (dissolving at temperature up to 90° C. in at least 35% (w/v) of propylene glycol) is “up to 10 mg/mL”.

(Values after patent US20240041856A1, “LIQUID APIXABAN FORMULATION IN SMALL DOSE VOLUME” (DAFECHEM LIMITED, priority 2020, published 2024).)
